Data published in ChEMBL document CHEMBL1201862, “PubChem BioAssay data set” (2004).
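Five compound concentrations were applied to cells in 96-well plates for 48 hours; endpoints were derived by simple linear interpolation of the resulting dose-response curve. GI50: concentration for 50% inhibition of growth.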 The source made the active and inactive calls. Cut-off read from the data, not from the text of the source: active = GI50 up to about 1.1 µM and inactive = higher.

Key:
Experiment in all cases: NCI-60 cell line screen, 48 h
786-0 = test system: 786-0
A498 = test system: A498
A549 = test system: A549
ACHN = test system: ACHN
BT-549 = test system: BT-549
CAKI-1 = test system: CAKI-1
CCRF-CEM = test system: CCRF-CEM
COLO 205 = test system: COLO 205
DU-145 = test system: DU-145
EKVX = test system: EKVX
HCC 2998 = test system: HCC 2998
HCT-116 = test system: HCT-116
HCT-15 = test system: HCT-15
HL-60 = test system: HL-60
HOP-62 = test system: HOP-62
HOP-92 = test system: HOP-92
HT-29 = test system: HT-29
Hs-578T = test system: Hs-578T
IGROV-1 = test system: IGROV-1
K562 = test system: K562
KM12 = test system: KM12
LOX IMVI = test system: LOX IMVI
M14 = test system: M14
MCF7 = test system: MCF7
MDA-MB-231 = test system: MDA-MB-231
MDA-MB-435 = test system: MDA-MB-435
MDA-N = test system: MDA-N
MOLT-4 = test system: MOLT-4
Malme-3M = test system: Malme-3M
NCI-H226 = test system: NCI-H226
NCI-H23 = test system: NCI-H23
NCI-H460 = test system: NCI-H460
NCI-H522 = test system: NCI-H522
NCI/ADR-RES = test system: NCI/ADR-RES
OVCAR-3 = test system: OVCAR-3
OVCAR-4 = test system: OVCAR-4
OVCAR-5 = test system: OVCAR-5
OVCAR-8 = test system: OVCAR-8
PC-3 = test system: PC-3
RPMI-8226 = test system: RPMI-8226
RXF 393 = test system: RXF 393
SF-268 = test system: SF-268
SF-295 = test system: SF-295
SF-539 = test system: SF-539
SK-MEL-28 = test system: SK-MEL-28
SK-MEL-2 = test system: SK-MEL-2
SK-MEL-5 = test system: SK-MEL-5
SK-OV-3 = test system: SK-OV-3
SN12C = test system: SN12C
SNB-19 = test system: SNB-19
SNB-75 = test system: SNB-75
SR = test system: SR
SW-620 = test system: SW-620
T47D = test system: T47D
TK-10 = test system: TK-10
U-251 = test system: U-251
UACC-257 = test system: UACC-257
UACC-62 = test system: UACC-62
UO-31 = test system: UO-31

COC12COC(=O)C1C(c1ccc3c(c1)OCO3)c1cc3c(cc1O2)OCO3 (centres undefined)
GI50 (786-0): 25.1 µM (inactive)
GI50 (A498): 29.2 µM (inactive)
GI50 (A549): 16.7 µM (inactive)
GI50 (ACHN): 29.1 µM (inactive)
GI50 (BT-549): 15.6 µM (inactive)
GI50 (CAKI-1): > 73.8 µM (inactive)
GI50 (CCRF-CEM): 8.57 µM (inactive)
GI50 (COLO 205): 9.42 µM (inactive)
GI50 (DU-145): 25 µM (inactive)
GI50 (EKVX): 37.1 µM (inactive)
GI50 (HCC 2998): 15.6 µM (inactive)
GI50 (HCT-116): 11.1 µM (inactive)
GI50 (HCT-15): 7.08 µM
GI50 (HL-60): 5.28 µM (inactive)
GI50 (HOP-62): 16 µM (inactive)
GI50 (HOP-92): 37.8 µM (inactive)
GI50 (HT-29): 6.44 µM (inactive)
GI50 (Hs-578T): 19.5 µM (inactive)
GI50 (IGROV-1): 20.8 µM (inactive)
GI50 (K562): 4.21 µM (inactive)
GI50 (KM12): 7.91 µM (inactive)
GI50 (LOX IMVI): 12.8 µM (inactive)
GI50 (M14): 13 µM (inactive)
GI50 (MCF7): 14.3 µM (inactive)
GI50 (MDA-MB-231): 25.4 µM (inactive)
GI50 (MDA-MB-435): 2.72 µM (inactive)
GI50 (MDA-N): 2.69 µM (inactive)
GI50 (MOLT-4): 7.11 µM (inactive)
GI50 (Malme-3M): 40.7 µM (inactive)
GI50 (NCI-H226): 34.3 µM (inactive)
GI50 (NCI-H23): 35.6 µM (inactive)
GI50 (NCI-H460): 10.5 µM (inactive)
GI50 (NCI-H522): 6.14 µM (inactive)
GI50 (NCI/ADR-RES): 5.3 µM (inactive)
GI50 (OVCAR-3): 9.62 µM (inactive)
GI50 (OVCAR-4): 36.5 µM (inactive)
GI50 (OVCAR-5): > 73.1 µM (inactive)
GI50 (OVCAR-8): 26.1 µM (inactive)
GI50 (PC-3): 12.6 µM (inactive)
GI50 (RPMI-8226): 14.4 µM (inactive)
GI50 (RXF 393): 10.3 µM (inactive)
GI50 (SF-268): 27.9 µM (inactive)
GI50 (SF-295): 6.95 µM (inactive)
GI50 (SF-539): 10.7 µM (inactive)
GI50 (SK-MEL-28): 32.8 µM (inactive)
GI50 (SK-MEL-2): 17.6 µM (inactive)
GI50 (SK-MEL-5): 11.2 µM (inactive)
GI50 (SK-OV-3): 14.2 µM (inactive)
GI50 (SN12C): 40 µM (inactive)
GI50 (SNB-19): 54.1 µM (inactive)
GI50 (SNB-75): 7.71 µM (inactive)
GI50 (SR): 5.38 µM (inactive)
GI50 (SW-620): 8.49 µM (inactive)
GI50 (T47D): 24.2 µM (inactive)
GI50 (TK-10): 29.2 µM (inactive)
GI50 (U-251): 32 µM (inactive)
GI50 (UACC-257): 27.9 µM (inactive)
GI50 (UACC-62): 15.8 µM (inactive)
GI50 (UO-31): 28.4 µM (inactive)
